From the NIST ThermoML archive (doi:10.1016/j.jct.2005.05.015)

Conditions: Liquid, Twin ebulliometer

CCCCC [pentane]
Conditions	vapor or sublimation pressure [kPa]
309.32 K	101.73
313.85 K	118.39
320.2 K	145.3
325.22 K	169.71
330.84 K	200.67
335.22 K	227.66
339.51 K	256.78
343.32 K	284.81
346.78 K	312.35
349.92 K	338.98
353.48 K	371.25
356.79 K	403.22
360.01 K	436.34
363.24 K	471.57
366.37 K	507.7
369.92 K	551.11
377.19 K	648.59
384.19 K	754.18
392.52 K	895.85
397.8 K	995.29
402.59 K	1092.4
406.87 K	1185.1
412.57 K	1317.5
416.13 K	1405.5
417.87 K	1450
420.09 K	1508.6
423.75 K	1608.9
424.62 K	1633.2
427.09 K	1704.4
430.44 K	1804.8
430.68 K	1812
433.61 K	1903.7
437.57 K	2033.2
440.81 K	2143.7
443.59 K	2242.6
446.65 K	2355.2
449.18 K	2451.9
451.9 K	2559.3
451.99 K	2562.8
454.33 K	2658.6
455.99 K	2727.7
